According to ChEMBL document CHEMBL1201862, “PubChem BioAssay data set” (2004):
Active and inactive are the calls of the source.

Key:
[1] = molecular target: DNA dC->dU-editing enzyme APOBEC-3A (Homo sapiens, UniProt P31941); assay: APOBEC3A DNA deaminase inhibitors, dose response, biochemical (AID 504722); type: functional
[2] = molecular target: DNA dC->dU-editing enzyme APOBEC-3G (Homo sapiens, UniProt Q9HC16); assay: Dose Response confirmation of small molecule APOBEC3G DNA Deaminase Inhibitors via a fluorescence-based single-stranded DNA deaminase assay. [Related pubchem assays (depositor defined):AID493012, AID493028]; type: functional
[3] = molecular target: T1, Rac GTPase-activating protein 1 (Homo sapiens, UniProt Q9H0H5); assay: MgcRacGAP GTPase-activating activity inhibitors, confirmation, biochemical, ADP Hunter fluorescence, primary and confirmatory (AID 624330); type: functional
T1 sequence (Q9H0H5 whole entry): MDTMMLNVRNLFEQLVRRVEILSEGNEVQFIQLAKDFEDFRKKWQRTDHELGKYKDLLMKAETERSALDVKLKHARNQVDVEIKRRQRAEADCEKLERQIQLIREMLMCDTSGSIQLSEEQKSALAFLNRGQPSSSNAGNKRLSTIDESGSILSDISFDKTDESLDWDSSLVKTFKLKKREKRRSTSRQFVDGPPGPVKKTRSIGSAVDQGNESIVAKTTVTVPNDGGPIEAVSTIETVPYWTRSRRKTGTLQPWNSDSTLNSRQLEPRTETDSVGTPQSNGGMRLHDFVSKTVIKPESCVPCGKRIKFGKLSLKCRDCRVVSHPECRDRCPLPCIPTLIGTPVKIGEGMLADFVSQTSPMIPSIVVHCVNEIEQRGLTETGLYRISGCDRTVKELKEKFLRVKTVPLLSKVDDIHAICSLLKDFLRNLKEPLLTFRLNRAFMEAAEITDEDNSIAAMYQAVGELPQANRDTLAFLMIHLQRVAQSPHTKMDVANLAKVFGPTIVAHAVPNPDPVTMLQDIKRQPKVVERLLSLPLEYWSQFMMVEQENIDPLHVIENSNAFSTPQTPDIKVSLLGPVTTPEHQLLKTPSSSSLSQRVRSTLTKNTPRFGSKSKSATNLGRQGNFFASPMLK

[4] = A cytotoxicity screen of small molecule inhibitors of the PhoP region in Salmonella typhi identified in the primary screen. [Related pubchem assays: 1850, 1864, 1985 ]; type: functional
[5] = molecular target: T2, Coagulation factor XII (Homo sapiens, UniProt P00748); type: functional;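 further: activated factor XIIa alpha cleaving a fluorogenic AMC peptide substrate; inhibitor potency from loss of enzyme activity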
T2 sequence (P00748 whole entry): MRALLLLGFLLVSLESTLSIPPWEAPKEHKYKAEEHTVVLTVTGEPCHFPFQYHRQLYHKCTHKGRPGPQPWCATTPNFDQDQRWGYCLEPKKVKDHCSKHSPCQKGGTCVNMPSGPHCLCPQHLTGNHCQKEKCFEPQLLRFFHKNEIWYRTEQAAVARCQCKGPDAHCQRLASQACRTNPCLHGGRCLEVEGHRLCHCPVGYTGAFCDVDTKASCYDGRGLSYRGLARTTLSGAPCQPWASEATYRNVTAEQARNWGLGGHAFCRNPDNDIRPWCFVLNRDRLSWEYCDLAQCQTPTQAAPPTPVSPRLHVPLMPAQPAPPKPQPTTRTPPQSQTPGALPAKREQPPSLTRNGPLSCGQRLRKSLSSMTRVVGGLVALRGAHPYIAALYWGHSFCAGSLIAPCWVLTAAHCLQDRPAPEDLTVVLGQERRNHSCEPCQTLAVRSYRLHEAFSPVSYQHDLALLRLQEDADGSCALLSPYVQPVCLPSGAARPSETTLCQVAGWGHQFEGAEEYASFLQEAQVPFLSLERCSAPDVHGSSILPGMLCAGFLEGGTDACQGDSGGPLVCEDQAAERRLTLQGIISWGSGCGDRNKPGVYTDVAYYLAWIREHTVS

[6] = molecular target: Voltage-dependent T-type calcium channel subunit alpha-1H (Homo sapiens, UniProt O95180); type: functional;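 further: channel activity triggered by adding a high calcium stimulation buffer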
[7] = inhibitors of firefly luciferase expression or activity, dose response, H4 neuroglioma cells, luminescence (AID 1990); type: functional, cell-based
[8] = Luminescence Cell-Based Dose Response HTS to Identify Inhibitors of 5'UTR Stem-Loop Driven Prion Protein mRNA Translation in H4 Neuroglioblastoma Cells. [Related pubchem assays: 1827 (Project Summary), 1813 (Primary HTS)]; type: functional
[9] = inhibitors of SNCA 5'UTR-driven reporter translation, confirmation, H4 neuroglioma cells, luminescence (AID 1988); type: functional, cell-based

Chain of Voltage-dependent T-type calcium channel subunit alpha-1H (O95180 whole entry): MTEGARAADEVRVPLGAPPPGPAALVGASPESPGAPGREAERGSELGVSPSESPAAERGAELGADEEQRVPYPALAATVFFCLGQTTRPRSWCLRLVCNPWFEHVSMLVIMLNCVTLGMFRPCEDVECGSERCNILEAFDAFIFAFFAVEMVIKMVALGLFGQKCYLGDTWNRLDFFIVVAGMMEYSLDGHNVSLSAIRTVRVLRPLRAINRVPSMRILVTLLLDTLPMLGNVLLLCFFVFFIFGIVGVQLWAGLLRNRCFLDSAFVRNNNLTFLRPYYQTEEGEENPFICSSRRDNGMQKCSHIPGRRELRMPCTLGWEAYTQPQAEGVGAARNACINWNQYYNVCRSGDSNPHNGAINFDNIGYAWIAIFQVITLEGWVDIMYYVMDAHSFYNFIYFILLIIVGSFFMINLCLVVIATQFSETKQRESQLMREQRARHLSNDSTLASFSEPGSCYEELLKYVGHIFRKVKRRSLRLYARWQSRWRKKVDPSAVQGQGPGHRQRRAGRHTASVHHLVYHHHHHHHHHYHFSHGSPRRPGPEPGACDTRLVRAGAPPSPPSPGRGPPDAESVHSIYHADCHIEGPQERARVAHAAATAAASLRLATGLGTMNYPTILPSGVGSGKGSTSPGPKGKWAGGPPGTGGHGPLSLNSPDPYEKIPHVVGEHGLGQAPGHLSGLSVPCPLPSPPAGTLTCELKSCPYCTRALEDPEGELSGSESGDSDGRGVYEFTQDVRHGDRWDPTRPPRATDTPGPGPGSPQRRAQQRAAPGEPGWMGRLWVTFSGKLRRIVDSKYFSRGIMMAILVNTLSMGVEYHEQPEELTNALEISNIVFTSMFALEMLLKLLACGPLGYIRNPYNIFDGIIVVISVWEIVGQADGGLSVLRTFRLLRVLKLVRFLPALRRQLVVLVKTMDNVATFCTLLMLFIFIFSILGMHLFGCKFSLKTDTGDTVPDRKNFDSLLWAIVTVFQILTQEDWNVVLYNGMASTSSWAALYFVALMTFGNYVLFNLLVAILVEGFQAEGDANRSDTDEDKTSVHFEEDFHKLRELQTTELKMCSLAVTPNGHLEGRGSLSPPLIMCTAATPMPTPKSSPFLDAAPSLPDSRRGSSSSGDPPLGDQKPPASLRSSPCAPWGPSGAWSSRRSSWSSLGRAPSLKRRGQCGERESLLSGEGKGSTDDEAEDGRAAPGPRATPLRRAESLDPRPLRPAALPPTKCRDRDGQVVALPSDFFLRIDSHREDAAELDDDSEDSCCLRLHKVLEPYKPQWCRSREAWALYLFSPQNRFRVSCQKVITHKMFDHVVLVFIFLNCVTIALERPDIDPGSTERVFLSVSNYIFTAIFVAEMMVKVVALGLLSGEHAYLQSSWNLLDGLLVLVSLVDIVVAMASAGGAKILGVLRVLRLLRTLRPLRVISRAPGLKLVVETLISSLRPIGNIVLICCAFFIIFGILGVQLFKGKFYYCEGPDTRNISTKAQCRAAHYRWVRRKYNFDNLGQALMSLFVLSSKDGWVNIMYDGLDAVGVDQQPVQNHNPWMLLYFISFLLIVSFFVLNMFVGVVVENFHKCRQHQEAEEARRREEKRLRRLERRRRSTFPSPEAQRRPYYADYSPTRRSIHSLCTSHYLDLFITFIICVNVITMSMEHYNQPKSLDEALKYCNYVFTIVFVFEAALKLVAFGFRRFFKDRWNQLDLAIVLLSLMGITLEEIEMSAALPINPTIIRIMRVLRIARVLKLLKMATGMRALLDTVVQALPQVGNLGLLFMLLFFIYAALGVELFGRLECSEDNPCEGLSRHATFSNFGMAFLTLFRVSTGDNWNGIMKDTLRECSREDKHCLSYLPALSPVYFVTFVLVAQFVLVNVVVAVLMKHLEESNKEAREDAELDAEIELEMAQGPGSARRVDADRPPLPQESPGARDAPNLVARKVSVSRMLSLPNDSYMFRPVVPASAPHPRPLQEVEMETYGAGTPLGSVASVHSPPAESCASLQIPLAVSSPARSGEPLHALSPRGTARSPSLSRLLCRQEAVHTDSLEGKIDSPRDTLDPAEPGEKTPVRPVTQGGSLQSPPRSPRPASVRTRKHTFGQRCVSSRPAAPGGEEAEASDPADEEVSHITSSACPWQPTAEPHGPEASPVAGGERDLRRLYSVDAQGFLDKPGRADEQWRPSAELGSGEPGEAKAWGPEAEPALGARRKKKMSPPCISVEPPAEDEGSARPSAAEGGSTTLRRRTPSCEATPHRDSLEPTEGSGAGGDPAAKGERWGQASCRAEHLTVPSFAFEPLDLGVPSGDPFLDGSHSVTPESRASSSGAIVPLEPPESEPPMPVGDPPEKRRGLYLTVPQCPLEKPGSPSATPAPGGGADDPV
Chain of DNA dC->dU-editing enzyme APOBEC-3G (Q9HC16 whole entry): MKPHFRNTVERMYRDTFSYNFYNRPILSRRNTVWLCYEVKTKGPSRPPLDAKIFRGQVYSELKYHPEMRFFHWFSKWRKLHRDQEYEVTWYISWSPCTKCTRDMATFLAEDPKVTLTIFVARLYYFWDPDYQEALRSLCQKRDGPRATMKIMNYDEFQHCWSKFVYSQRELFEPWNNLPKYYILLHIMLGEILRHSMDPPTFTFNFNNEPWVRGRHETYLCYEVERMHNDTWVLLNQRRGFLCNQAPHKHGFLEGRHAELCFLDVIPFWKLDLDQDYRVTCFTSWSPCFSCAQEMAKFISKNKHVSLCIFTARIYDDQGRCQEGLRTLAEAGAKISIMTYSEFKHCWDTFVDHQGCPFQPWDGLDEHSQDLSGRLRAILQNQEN
Chain of DNA dC->dU-editing enzyme APOBEC-3A (P31941 whole entry): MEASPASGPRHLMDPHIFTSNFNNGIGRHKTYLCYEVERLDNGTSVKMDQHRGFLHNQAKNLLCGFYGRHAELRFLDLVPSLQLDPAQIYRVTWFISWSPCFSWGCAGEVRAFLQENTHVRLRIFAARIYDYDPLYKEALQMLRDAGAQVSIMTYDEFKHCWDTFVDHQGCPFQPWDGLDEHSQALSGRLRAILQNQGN

## COc1ccc(/C=N/n2c(S)nnc2-c2[nH]nc3c2CCC3)cc1OC
[1]
  IC50: > 100 µM (inactive)
[2]
  IC50: 2.49 µM (active)
[3]
  IC50: 79.9 µM (active)

## CN(C)c1nnnn1-c1ccc(Oc2ccccc2)cc1
[4]
  EC50: > 50 µM (active)

## CSc1ccccc1C(=O)C1CCCN(S(=O)(=O)N(C)C)C1 (stereo not drawn)
[5]
  IC50: > 50 µM (inactive)

## Cc1ccccc1NC(NC(=O)c1cccs1)C(Cl)(Cl)Cl (stereo not drawn)
[6]
  EC50: 5.15 µM (active)

## CCOc1ccccc1NC(=O)C1CCCN(S(=O)(=O)c2ccc(OC)c(C)c2)C1 (stereo not drawn)
[6]
  EC50: 13.6 µM (active)

## C=CCn1c(S)nnc1-c1cccc(S(=O)(=O)N(CC)CC)c1
[1]
  IC50: > 100 µM (inactive)
[2]
  IC50: 5.67 µM (active)

## Cc1nc2cc(-c3ccccc3)nn2c(C)c1CCC(=O)N1CCN(c2ccccc2)CC1
[7]
  EC50: 16.6 µM (active)
[8]
  EC50: 13.6 µM (active)
[6]
  EC50: 4.59 µM (active)
[9]
  EC50: 16.1 µM (active)
